Data published in paper PMC11786100, “Chronic GIPR agonism results in pancreatic islet GIPR functional desensitisation” (Molecular Metabolism, 2025).

Legend:
[1] = target: T1, SNAP-tagged human GIPR (Homo sapiens, UniProt P48546); assay: Internalisation and receptor surface expression assays in AD-293 cells; assay type: cell-based; conditions: 1 μM
T1 construct: host or cells: AD-293
T1 sequence (P48546 22-466): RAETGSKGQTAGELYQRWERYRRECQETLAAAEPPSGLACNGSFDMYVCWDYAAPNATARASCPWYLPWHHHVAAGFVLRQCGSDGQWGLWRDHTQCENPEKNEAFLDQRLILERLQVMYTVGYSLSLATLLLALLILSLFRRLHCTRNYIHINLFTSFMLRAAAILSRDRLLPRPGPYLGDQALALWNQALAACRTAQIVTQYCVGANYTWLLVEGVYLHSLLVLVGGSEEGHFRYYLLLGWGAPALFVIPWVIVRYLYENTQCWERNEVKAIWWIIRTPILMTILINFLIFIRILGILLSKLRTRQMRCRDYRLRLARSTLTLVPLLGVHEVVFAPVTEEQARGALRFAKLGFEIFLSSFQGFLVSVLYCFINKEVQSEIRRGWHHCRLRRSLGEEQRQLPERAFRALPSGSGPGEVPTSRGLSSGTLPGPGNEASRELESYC
Description: AD-293 cells were transfected with desired plasmid DNA encoding a SNAP-tagged G-protein coupled receptor (GPCR) 24 h prior to assay. For 1 h internalisation assays, cells were labelled for 10 min with cleavable SNAP-tag probe BG-S-S-649 (New England BioLabs, US). Following 1 h treatment with specified peptide, cells were imaged at baseline and after addition of 2-mercaptoethane sulfonate (Mesna). For 4-hour GPCR surface expression assays, cells were treated with the specified peptide for 4 h, prior to 10-minute labelling with BG-S-S-649 and imaging.
AD-293 cells were added to a 96-well plate and maintained in 200 μl complete DMEM. […]
For 1 hour internalisation assays, cells were labelled with cleavable SNAP-tag probe BG-S-S-649 (New England BioLabs, US) in complete DMEM for 10 minutes prior to washing and 1 hour treatment with specified peptide, reconstituted in DMEM + 0.1% BSA. […] GPCR internalisation was quantified as the cell fluorescence following Mesna addition (representing internalised GPCR), corrected for the baseline cell fluorescence (representing total cellular GPCR).
For 4-hour GPCR surface expression assays, cells were treated with specified peptide for 4 hours in complete DMEM prior to labelling with BG-S-S-649. […] GPCR surface expression following peptide treatment was quantified as cell fluorescence as a percentage of cell fluorescence following vehicle treatment.

[2] = test system: lean and HFD-induced obese mice; assay: In vivo GIPR desensitisation: IPGTT and insulin bleeds; design: species or system mouse
Description: In all in vivo studies, mice were randomised by body weight into groups. Mice received a 50 μL subcutaneous injection of saline (0.9% sodium chloride) or peptide at a specified dose, diluted in saline. Peptide dosing was in nmol per kg of total body weight. For the assessment of the chronic effects of GIP108, mice were injected daily for 15 days. Body composition was measured by EchoMRI on day −1 and day 15. An intraperitoneal glucose tolerance test (IPGTT) (2 g/kg) was conducted on day 14, following 6 h of fasting and 2 h after peptide injection. Non-fasting plasma leptin (ab199082, Abcam, UK), adiponectin (ab226900, Abcam, UK) and amino acids (ab65347, Abcam, UK) were measured on day 16. For the assessments of in vivo GIPR desensitisation, mice were injected at 17:00 with vehicle or GIP108 (30 nmol/kg) prior to an acute food intake study/IPGTT/insulin bleeds conducted the following day. Full details of the in vivo studies are provided in the supplementary methods.
Mice were fasted at 08:00. For all studies, 20% glucose was administered at 14:00, with the injection volume adjusted to the body weight of the mouse such that each mouse received glucose at 2 g/kg. To assess effects of GIP108 on day 14 of the chronic study, mice were dosed with saline or GIP108 at a specified dose at 12:00. […] Blood glucose measurements were taken via tail vein venesection at baseline, t=15, t=30, t=60, t=90 and t=120 mins. Glucose AUC is calculated using y=0. Glucose readings were measured in mmol/L using the same GlucoRx glucometer.
Mice were fasted at 08:00. At 14:00, mice received an intraperitoneal injection with 20% glucose, with the injection volume adjusted to the body weight of the mouse such that each mouse received glucose at 2 g/kg. […] Blood samples were taken via tail vein venesection at baseline and t=15 minutes following injection.
Leptin, adiponectin and amino acids were quantified following chronic GIP108 administration. Plasma amino acids were measured using the Abcam L-amino acid assay kit (ab65347, Abcam, UK). Plasma adiponectin was measured using the Abcam mouse adiponectin ELISA kit (ab226900, Abcam, UK). Plasma leptin was measured using the Abcam mouse leptin ELISA kit (ab199082, Abcam, UK). All assays were performed according to the manufacturer’s protocol and were read using the SpectraMax i3x Microplate Reader (Molecular Devices, US).

[3] = Pharmacokinetic study in pigs; assay type: in vivo; conditions: 0.5 mg/pig subcutaneously, male large white pigs, n = 3
Description: Pharmacokinetic testing of GIP108, administered subcutaneously at 0.5 mg/pig in male large white pigs, was outsourced to Pharmaron Ltd., UK. Full details are stated elsewhere.

[4] = target: T2, mouse SNAP-tagged GLP-1R (Mus musculus, UniProt O35659); assay: β-arrestin-2 activation assay (Borealis sensor) in AD-293 cells; assay type: cell-based; conditions: 10 nM, 30-minute stimulation, n = 5–6
T2 construct: host or cells: AD-293
T2 sequence (O35659 22-463): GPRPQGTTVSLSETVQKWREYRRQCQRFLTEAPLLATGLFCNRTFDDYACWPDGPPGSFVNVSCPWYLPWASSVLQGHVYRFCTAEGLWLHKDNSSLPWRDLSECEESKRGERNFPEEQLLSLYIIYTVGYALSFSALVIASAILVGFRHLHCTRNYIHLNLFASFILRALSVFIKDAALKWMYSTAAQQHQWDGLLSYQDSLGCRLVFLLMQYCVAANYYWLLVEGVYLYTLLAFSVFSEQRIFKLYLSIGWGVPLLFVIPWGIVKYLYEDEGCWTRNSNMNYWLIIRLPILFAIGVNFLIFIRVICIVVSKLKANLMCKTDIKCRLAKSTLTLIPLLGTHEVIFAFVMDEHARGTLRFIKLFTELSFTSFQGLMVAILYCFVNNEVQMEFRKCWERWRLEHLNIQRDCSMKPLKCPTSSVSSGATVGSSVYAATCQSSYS
Description: AD-293 cells were transfected with desired plasmid DNA encoding a SNAP-tagged GPCR alongside transduction of Bacmam viral particles encoding the Borealis β-arrestin-2 sensor (Montana Molecular, US) and GRK5 (Montana Molecular, US) 24 h prior to assay. Cells were labelled for 10 min with BG-S-S-649 and imaged at baseline and for 30 min following peptide stimulation. Borealis arrestin sensor fluorescence in BG-S-S-649 labelled cells (representing GPCR expressing cells) was quantified and expressed as a % change from baseline. Full details are provided in the supplementary methods.
AD-293 cells were added to a 96-well plate and maintained in 200 μL complete DMEM. […]
Cells were labelled with cleavable SNAP-tag probe BG-S-S-649 in complete DMEM for 10 minutes prior to washing and imaging. […] Cells were imaged at baseline, registering both BG-S-S-649 fluorescence and borealis arrestin sensor fluorescence. Borealis arrestin sensor fluorescence was then imaged for 30 minutes after peptide addition in intervals of 5 minutes. Borealis arrestin sensor fluorescence in BG-S-S-649 labelled cells was quantified using Fiji v1.54f (NIH) and expressed as a % change from baseline.

β-arrestin-2 activation compared to vehicle control [4] | Compound | receptor internalisation compared to vehicle ([1]; 1-hour treatment, BG-S-S-649/Mesna, n = 3–4) | residual receptor detectable at the cell surface ([1]; 4 h treatment, post-stimulation labelling, n = 7–8) | effect of GIP108 pre-treatment on hGIP (50 nmol/kg) improvement of glucose tolerance ([2]; GIP108 30 nmol/kg s.c. 21 h prior to IPGTT, lean and HFD-induced obese mice, n = 14–16) | plasma insulin response to GIP/glucose administration after GIP108 pre-treatment ([2]; GIP108 30 nmol/kg s.c. 21 h prior, hGIP 50 nmol/kg, 15 min, lean mice, n = 8) | half-life [3]
– | CC[C@H](C)[C@H](NC(=O)[C@H](CO)NC(=O)[C@H](Cc1ccc(O)cc1)NC(=O)[C@H](CC(=O)O)NC(=O)[C@H](CO)NC(=O)[C@@H](NC(=O)[C@H](Cc1ccccc1)NC(=O)[C@@H](NC(=O)CNC(=O)[C@H](CCC(=O)O)NC(=O)C(C)(C)NC(=O)[C@@H](N)Cc1ccc(O)cc1)[C@@H](C)O)[C@@H](C)CC)C(=O)N[C@@H](C)C(=O)N[C@@H](CC(C)C)C(=O)N[C@@H](CC(=O)O)C(=O)N[C@@H](CCCCN)C(=O)N[C@H](C(=O)N[C@@H](Cc1c[nH]cn1)C(=O)N[C@@H](CCC(N)=O)C(=O)N[C@@H](CCC(N)=O)C(=O)N[C@@H](CC(=O)O)C(=O)N[C@@H](Cc1ccccc1)C(=O)N[C@H](C(=O)N[C@@H](CC(N)=O)C(=O)N[C@@H](Cc1c[nH]c2ccccc12)C(=O)N[C@@H](CC(C)C)C(=O)N[C@@H](CC(C)C)C(=O)N[C@@H](C)C(=O)N[C@@H](CCC(N)=O)C(=O)N[C@@H](CCCCN)C(=O)NCC(=O)N[C@@H](CCCCNC(=O)CC[C@H](NC(=O)CCCCCCCCCCCCCCCCCCC(=O)O)C(=O)O)C(=O)N[C@@H](CCCCN)C(=O)N[C@@H](CC(N)=O)C(=O)N[C@@H](CC(=O)O)C(=O)N[C@@H](Cc1c[nH]c2ccccc12)C(=O)N[C@@H](CCCCN)C(=O)N[C@@H](Cc1c[nH]cn1)C(=O)N[C@@H](CC(N)=O)C(=O)N[C@H](C(=O)N[C@H](C(=O)N[C@@H](CCC(N)=O)C(=O)O)[C@@H](C)O)[C@@H](C)CC)C(C)C)[C@@H](C)CC [GIP108] | increased human GIPR internalisation | reduction in residual human GIPR | ability to improve glucose tolerance was reduced | blunted | extended half-life
significant β-arrestin-2 activation | GLP-1(7–36)·NH2 | – | – | – | – | –
